Counter-ions that a name gives are not always drawn. The source made the active and inactive calls. The calls are words filed in the database; no cut-off is given here. Where only a bound is given, the exact number is not on record here.

The EC50 is the concentration needed to bring the measured effect to its halfway point.

Tested on in one test: not listed separately
The test can be described thus: Agonist activity at noradrenergic receptor in Sprague-Dawley rat limbic forebrain assessed as increase in c-AMP production incubated for 10 mins.
Conditions: not given
For `CC(C)NC[C@H](O)c1ccc(O)c(O)c1`, the EC50 turned out to be 5 µM.

For `CNC[C@@H](O)c1ccc(O)c(O)c1`, the EC50 is more than 100 µM.

Turning to `CC(N)C(O)c1ccc(O)c(O)c1` (racemic) [NORDEFRIN HYDROCHLORIDE], the EC50 came out at 10 µM.

`CNC[C@H](O)c1ccc(O)c(O)c1` [EPINEPHRINE BITARTRATE]: the EC50 turned out to be 5 µM.

For another test, the species on record is Rattus norvegicus. The test can be described thus: Agonist activity at noradrenergic receptor in Sprague-Dawley rat limbic forebrain assessed as increase in c-AMP production up to 10^-4 M incubated for 10 mins. Type of test: tissue-based. Conditions: Limbic system.
Regarding `C[C@H](N)[C@H](O)c1ccc(O)cc1`, the result was inactive.

As for `NCCc1ccc(O)c(O)c1`, the result was inactive.

As to `C[C@H](N)Cc1ccc(O)cc1`, the result was inactive.

As to `C[C@H](N)Cc1ccccc1`, the result was inactive.

Take `C[C@H](N)[C@H](O)c1cccc(O)c1`: the outcome was inactive.

`C[C@H](N)[C@@H](O)c1ccc(O)cc1`: the result was inactive.

With `NCC(O)c1ccc(O)cc1` (racemic), the result was inactive.

For the origin of these results see ChEMBL document CHEMBL3244148, “Agonist effects of beta-phenethylamines on the noradrenergic cyclic adenosine 3',5'-monophosphate generating system in rat limbic forebrain. Stereoisomers of p-hydroxynorephedrine” (J Med Chem, 1977).
